From US9718781B2, “Methods and compounds for treating proliferative disorders and viral infections” (University College Dublin, National University of Ireland, …, priority 2012, dated 2017)

Tests used:
[1] = target: T1, TPα (Homo sapiens, UniProt P21731); assay: U46619-induced [Ca2+]i mobilization in HEK.TPα cells; format: cell-based; conditions: for remaining activity at 1 µM: antagonist 1 μM, read-out: Percentage of Control, TPα, 1 μM; for remaining activity at 1 µM / remaining activity at 10 µM / IC50: 1 μM U46619; for remaining activity at 1 µM / remaining activity at 10 µM: % of agonist-induced response in vehicle-treated cells; for remaining activity at 10 µM: antagonist 10 μM, read-out: Percentage of Control, TPα, 10 μM; for IC50: HEK.TPα cells, Table 2, read-out: IC50 data for U46619-mediated [Ca2+]i mobilization, TPα; for TPα:TPβ Selectivity Ratio: IC50 TPα/IC50 TPβ
T1 construct: expressed in transfected cells
T1 sequence (P21731 1-343): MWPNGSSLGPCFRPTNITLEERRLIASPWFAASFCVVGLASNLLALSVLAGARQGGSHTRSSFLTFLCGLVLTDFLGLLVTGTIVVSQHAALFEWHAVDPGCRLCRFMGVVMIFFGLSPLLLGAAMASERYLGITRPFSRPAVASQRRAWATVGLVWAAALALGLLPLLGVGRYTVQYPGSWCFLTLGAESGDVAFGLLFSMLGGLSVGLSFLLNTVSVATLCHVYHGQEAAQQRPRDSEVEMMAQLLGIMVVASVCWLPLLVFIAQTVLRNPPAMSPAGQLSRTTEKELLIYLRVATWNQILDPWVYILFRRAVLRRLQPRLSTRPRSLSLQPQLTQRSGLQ
Description: (§1) An appropriate functional test for the evaluation of the agonistic and/or antagonistic potency of the compounds of the invention is the determination of calcium flux. Both TPα and TPβ are coupled to the G-protein Gαq. Therefore, stimulation of these receptors ultimately leads to a release of intracellular calcium ([Ca^2+]i) from intracellular stores. Consequently, the determination of [Ca^2+]i flux represents an appropriate functional test for the evaluation of the agonistic/antagonistic potency of compounds of the invention. Calcium can be measured using a molecule characterized by the covalent combination of a Ca^2+ chelating group and a fluorophore group. The Ca^2+ binding properties of these indicators are formed by the presence of a tetracarboxylic acid core as found for example in EGTA (Ethylene Glycol bis(2-aminoethyl)Tetraacetic Acid). Binding of Ca^2+ produces a wavelength shift in either the excitation or emission fluorescence spectra or a change in the emission intensity. Whereas the Ca^2+ binding to EGTA is pH dependent, recent dyes are designed from an EGTA derivative, BAPTA (1,2-Bis(2-Aminophenoxy)ethane-N,N,N′,N′-Tetraacetic Acid). Loading of these dyes inside cells commonly uses esterified forms (acetoxymethyl ester), which are able to cross the cell membranes and are subsequently hydrolyzed by esterases inside the cell.
(§2) Estimation of [Ca^2+]i flux is calculated from the fluorescence signal (F). For calibration, the maximal fluorescence (Fmax, Ca^2+-saturated form of the dye) as well as minimal fluorescence (Fmin, Ca^2+-free form of the dye) must be determined. These parameters are determined usually in situ after the experiment, for example by subsequent addition to the mixture of a cell-disrupting agent that releases all Ca^2+ such as Triton X100 and a potent Ca^2+-chelating agent such as EGTA. After subtraction of background fluorescence, [Ca^2+]; flux can be calculated for non-ratiometric indicators.
(§3) Intracellular [Ca^2+]; fluxes were measured using a fluorescence plate reader following a modified protocol of Kassack et al., ‘Quantitative comparison of functional screening by measuring intracellular Ca^2+ with radioligand binding at recombinant human dopamine receptors’, AAPS Pharmsci, 2002, 4(4); 102-111, in cell lines (e.g. HEK293 or other cell type) endogenously-expressing or over-expressing either TPα, TPβ or any other receptor or protein to be screened.
(§4) By way of example, HEK 293 cells which have been grown for 3-4 days in normal growth media (minimum essential media containing 10% FBS and 2 mmol/1 L-glutamine), under normal growth conditions (37° C., in humidified 5% CO2 atmosphere) are washed and harvested in KREBs-HEPES buffer (118 mM NaCl, 4.7 mM KCl, 1.2 mM MgSO4, 1.2 mM KH2PO4, 4.2 mM NaHCO3, 11.7 mM D-glucose, 1.3 mM CaCl2, 10 mM HEPES, pH 7.4). Cells are then incubated with 3 μM Fluo-4 in KREBs-HEPES buffer containing 1% Pluoronic F-127, for 1 hr at 25° C. with agitation. Then, cells are washed in KREBs-HEPES buffer containing 0.5% BSA and re-suspended at a final concentration of 3×10^5 cells/ml. Approx. 5.4×10^4 cells per well are plated in a 96-well plate and pre-incubated with test compounds for 10 m prior to measuring the fluorescence intensity at 520 nm for 25 seconds at 1 s intervals to monitor baseline using the Fluoroskan Ascent. Agonist (e.g., 1 μM U46619) is injected into separate wells by the automatic pipettor and fluorescence intensity is monitored at 520 nm for 75 seconds at 1 s intervals. Thereafter, Triton X100 and EGTA are added sequentially where Fmax refers to maximal fluorescence intensity measured after permeabilization of the cells with 2% Triton X100 and Fmin refers to fluorescence intensity measured after addition of 1 mM EGTA.
(§5) The dye Fluo-4 has its excitation peak at 480 nm, in the visible spectra, which spare cells to be damaged by UV (340-360 nm) stimulation and reduces auto-fluorescence of cells. […]

[2] = target: T2, TPβ (Homo sapiens, UniProt P21731); assay: U46619-induced [Ca2+]i mobilization in HEK.TPβ cells; format: cell-based; conditions: 1 μM U46619; for remaining activity at 1 µM / activity class in HEK.TPβ cells: antagonist 1 μM; for remaining activity at 1 µM / remaining activity at 10 µM: % of agonist-induced response in vehicle-treated cells; for remaining activity at 1 µM: read-out: Percentage of Control, TPβ, 1 μM; for remaining activity at 10 µM: antagonist 10 μM, read-out: Percentage of Control, TPβ, 10 μM; for IC50: HEK.TPβ cells, Table 2, read-out: IC50 data for U46619-mediated [Ca2+]i mobilization, TPβ
T2 construct: expressed in transfected cells
T2 sequence (P21731 1-407 isoform P21731-2): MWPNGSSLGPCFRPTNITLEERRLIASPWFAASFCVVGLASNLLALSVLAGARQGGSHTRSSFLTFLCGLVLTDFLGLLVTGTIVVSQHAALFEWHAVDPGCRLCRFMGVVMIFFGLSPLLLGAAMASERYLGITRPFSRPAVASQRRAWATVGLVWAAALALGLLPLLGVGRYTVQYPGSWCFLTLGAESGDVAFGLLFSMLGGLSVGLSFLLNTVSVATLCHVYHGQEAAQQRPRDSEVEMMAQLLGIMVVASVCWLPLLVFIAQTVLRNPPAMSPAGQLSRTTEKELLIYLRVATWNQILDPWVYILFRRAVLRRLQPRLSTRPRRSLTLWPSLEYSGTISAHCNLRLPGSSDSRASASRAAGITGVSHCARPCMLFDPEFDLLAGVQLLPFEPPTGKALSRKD
Description: as §1, §2, §3, §4, §5

SMILES	remaining activity at 1 µM [1] [%]	remaining activity at 10 µM [1] [%]	remaining activity at 1 µM [2] [%]	remaining activity at 10 µM [2] [%]	IC50 [1] [µM]	TPα:TPβ Selectivity Ratio [1]	IC50 [2] [µM]	activity class in HEK.TPβ cells [2]
COc1ccc(-c2cccc(Oc3ccc(C(=O)NCc4ccccn4)cc3S(=O)(=O)NC(=O)NC(C)(C)C)c2)cc1 [NTP11]	73.1 ± 5.28	75.4 ± 5.83	49.8 ± 1.86	20.7 ± 2.81	–	–	–	–
Cc1ccc(Nc2ccc([N+](=O)[O-])cc2S(=O)(=O)NC(=O)NC(C)(C)C)cc1 [BM573, reference compound]	48.5 ± 1.77	12 ± 0.76	23.8 ± 0.68	9.9 ± 1.8	–	–	–	–
COc1ccc(-c2cccc(Oc3ccc(C(=O)N4CCC4)cc3S(=O)(=O)NC(=O)NC(C)(C)C)c2)cc1 [NTP17]	83.1 ± 4.85	59.5 ± 4.07	51.1 ± 1.13	13.3 ± 5.91	–	–	–	–
COc1ccc(-c2cccc(Oc3ccc(Cl)cc3S(=O)(=O)NC(=O)NC(C)(C)C)c2)cc1 [NTP30, N-(tert-butylcarbamoyl)-5-chloro-2-((4′-methoxy-[1,1′-biphenyl]-3-yl)oxy)benzenesulfonamide]	52.2 ± 3.9	23.3 ± 3.63	46.5 ± 5.86	9.31 ± 1.57	–	–	–	ACTIVE
COc1ccc(-c2cccc(Oc3ccc(F)cc3S(=O)(=O)NC(=O)NC(C)(C)C)c2)cc1 [NTP8, N-(tert-butylcarbamoyl)-5-fluoro-2-((4′-methoxy-[1,1′-biphenyl]-3-yl)oxy)benzene-sulfonamide]	68 ± 5.05	49.9 ± 6.91	59.4 ± 1.85	14.6 ± 2.72	–	–	–	ACTIVE
COc1ccc(-c2cccc(Oc3ccc(C(=O)NCCN(C)C)cc3S(=O)(=O)NC(=O)NC(C)(C)C)c2)cc1 [NTP15]	79.8 ± 8.81	52.6 ± 8.42	87.6 ± 8.28	86.1 ± 5.64	–	–	–	–
CCCCCNC(=O)NS(=O)(=O)c1cc([N+](=O)[O-])ccc1Oc1cccc(-c2ccc(C)cc2)c1 [IX]	–	–	–	–	11.6	7.5	1.54	–
COc1ccc(-c2cccc(Oc3ccc(N)cc3S(=O)(=O)NC(=O)NC(C)(C)C)c2)cc1 [NTP1, 5-amino-N-(tert-butylcarbamoyl)-2-((4′-methoxy-[1,1′-biphenyl]-3-yl)oxy)benzene-sulfonamide]	77.8 ± 8.71	50.2 ± 6.39	101 ± 4.75	102 ± 4.15	–	–	–	–
CCn1cc(-c2ccc(Oc3cccc(-c4ccc(OC)cc4)c3)c(S(=O)(=O)NC(=O)NC(C)(C)C)c2)cn1 [NTP6, N-(tert-butylcarbamoyl)-5-(1-ethyl-1H-pyrazol-4-yl)-2-((4′-methoxy-[1,1′-biphenyl]-3-yl)oxy)benzenesulfonamide]	88.6 ± 14.5	45.1 ± 5.75	94.4 ± 7.7	57.4 ± 6.86	–	–	–	–
COc1ccc(-c2cccc(Oc3ccc(C(=O)O)cc3S(=O)(=O)NC(=O)NC(C)(C)C)c2)cc1 [NTP5, 3-(N-(tert-butylcarbamoyl)sulfamoyl)-4-((4′-methoxy-[1,1′-biphenyl]-3-yl)oxy)benzoic acid]	98.7 ± 9.29	61.7 ± 1.42	88.3 ± 5.27	72 ± 3.87	–	–	–	–
CNC(=O)c1ccc(Oc2cccc(-c3ccc(OC)cc3)c2)c(S(=O)(=O)NC(=O)NC(C)(C)C)c1 [NTP10]	95.5 ± 4.25	69.8 ± 1.73	96 ± 0.94	54.7 ± 8.1	–	–	–	–
COc1ccc(-c2cccc(Oc3ccc(C(F)(F)F)cc3S(=O)(=O)NC(=O)NC(C)(C)C)c2)cc1 [NTP3, N-(tert-butylcarbamoyl)-2-((4′-methoxy-[1,1′-biphenyl]-3-yl)oxy)-5-(trifluoromethyl)benzenesulfonamide]	69.6 ± 5.35	41.6 ± 5.45	46 ± 5.92	14.8 ± 2.44	–	–	–	ACTIVE

Continued, in another order:

remaining activity at 1 µM [1] [%]	remaining activity at 10 µM [1] [%]	remaining activity at 1 µM [2] [%]	remaining activity at 10 µM [2] [%]	IC50 [1] [µM]	TPα:TPβ Selectivity Ratio [1]	IC50 [2] [µM]	SMILES	activity class in HEK.TPβ cells [2]
82.6 ± 3.41	52.8 ± 8.03	72.2 ± 5.66	18.8 ± 1.77	–	–	–	COc1ccc(-c2cccc(Oc3cc[n+]([O-])cc3S(=O)(=O)NC(=O)NC(C)(C)C)c2)cc1 [NTP41, 3-(N-(tert-butylcarbamoyl)sulfamoyl)-4-((4′-methoxy-[1,1′-biphenyl]-3-yl)oxy)pyridine 1-oxide]	–
93.4 ± 6.17	73.6 ± 2.98	45 ± 4.34	22.6 ± 2.28	–	–	–	COc1ccc(-c2cccc(Oc3ccc(-c4cn[nH]c4)cc3S(=O)(=O)NC(=O)NC(C)(C)C)c2)cc1 [NTP18]	–
101 ± 7.28	87.6 ± 11.3	85.1 ± 4.38	50.1 ± 4.06	–	–	–	COc1ccc(-c2cccc(Oc3ccc(C(=O)N4CCOCC4)cc3S(=O)(=O)NC(=O)NC(C)(C)C)c2)cc1 [NTP22]	–
–	–	–	–	13	1.4	9.33	CCCCCNC(=O)NS(=O)(=O)c1cc([N+](=O)[O-])ccc1Oc1cccc(-c2ccc(OC)cc2)c1 [XLIII]	–
64.2 ± 2.89	49.9 ± 7.61	48.4 ± 2.75	20.4 ± 1.94	–	–	–	COc1ccc(-c2cccc(Oc3ccc(C(=O)N4CC(O)C4)cc3S(=O)(=O)NC(=O)NC(C)(C)C)c2)cc1 [NTP23, N-(tert-butylcarbamoyl)-5-(3-hydroxyazetidine-1-carbonyl)-2-((4′-methoxy-[1,1′-biphenyl]-3-yl)oxy)benzenesulfonamide]	–
113 ± 8.15	105 ± 8.03	100 ± 4.69	94.6 ± 3.58	–	–	–	COc1ccc(-c2cccc(Oc3ccc(-c4ccncc4)cc3S(=O)(=O)NC(=O)NC(C)(C)C)c2)cc1 [NTP29]	–
96.8 ± 3.94	107 ± 6.48	87.7 ± 8.18	37.9 ± 2.61	–	–	–	COc1ccc(-c2cccc(Oc3ccc(C(=O)Nc4ncco4)cc3S(=O)(=O)NC(=O)NC(C)(C)C)c2)cc1 [NTP24]	–
108 ± 7.64	89.5 ± 10.3	110 ± 1.85	62.3 ± 4.3	–	–	–	CCNC(=O)c1ccc(Oc2cccc(-c3ccc(OC)cc3)c2)c(S(=O)(=O)NC(=O)NC(C)(C)C)c1 [NTP28]	–
